Measurements as given in patent US10434133B2, “Inflammation-suppressing composition including peptide” (KIRIN KABUSHIKI KAISHA, priority 2015, dated 2019).

Tested on: microglia
Assay: TNF-α production of LPS/IFN-γ-stimulated isolated microglia (Test Examples 1 to 3)
Assay type: cell-based, mouse
Conditions: peptides at 10 μM and 50 μM; FIG. 2
Experimental: Microglia were isolated from the mouse brain by the magnetic cell sorting method. Specifically, the brain removed from a mouse was treated with papain to obtain a brain tissue dispersion and the enzyme reaction was stopped. Subsequently, the dispersion was reacted to CD11b antibody (manufactured by Miltenyi Biotec), a common microglia marker magnetically labelled with superparamagnetic microbeads, to carry out magnetic separation whereby microglia were isolated. The isolated microglia cell was cultured for 12 hours in medium to which the above 336 dipeptides were added in a concentration of 50 μM each. Subsequently, 5 ng/ml of lipopolysaccharide (LPS, manufactured by SIGMA-ALDRICH) and 0.5 ng/ml of IFN-γ (manufactured by R&D system) were added thereto, the cell was further cultured for 12 hours and TNF-α contained in the culture supernatant was quantitatively determined using an ELISA kit (manufactured by eBioscience). […] Note that the results are average values of three consecutive data. Additionally, hereinafter the amino acids are shown in one-letter abbreviations. […] Note that, for the control, those cultured with no addition of the peptides were used as in Test Example 1. For comparison, the dipeptides having the same amino acid composition with different sequences, that it, VD and HL were also measured for the TNF-α production at different concentrations.

TDVE: tetrapeptide having DV as the core sequence
inflammation suppression effect against microglia (TNF-α): the most intense
